# Results reported in patent US12655458B2, “Methods for cyclization of (poly)peptides comprising nγ-hydroxy- or Nγ-amino-L-asparagine” (priority 2021, dated 2026).
# Positions of bridges follow the written chain, without caps; N, C: chain ends. Residues, ends and D or L forms follow the SMILES beside them.
# Legend:
# [1] = target: T1, MMP9 (Homo sapiens, UniProt P14780); assay: MMPs inhibition assay (FRET substrate), MMP9; type: biochemical
# T1 construct: purchased Sigma-Aldrich
# Method: (§1) The inhibitory activity of the peptides was determined by measuring the MMPs' protease activity towards a FRET substrate. 0.8 nM MMP2 or MMP9 (Sigma-Aldrich), 10 μM substrate (FAM-Lys-Pro-Leu-Gly-Leu-Lys(Dabcyl)-Ala-Arg-NH2, λex 490 nm; λem 520 nm) and various concentrations of the peptides (0.0001 μM-10 μM or 0.001 μM-100 μM) were used. The reactions were performed in 50 mM Tris-HCl buffer (pH 7.5) containing 150 mM NaCl, 10 mM CaCl2, 0.05% Brij35, at 37° C. MMP2 was pre-incubated with the peptide inhibitors for 10 min before adding the substrate. All the numbers were input into GraphPad Prism (GraphPad Software, San Diego) for IC50 calculation.
# [2] = target: T2, MMP2 (Homo sapiens, UniProt P08253); assay: MMPs inhibition assay (FRET substrate), MMP2; type: biochemical
# T2 construct: purchased Sigma-Aldrich
# T2 sequence (P08253 110-660): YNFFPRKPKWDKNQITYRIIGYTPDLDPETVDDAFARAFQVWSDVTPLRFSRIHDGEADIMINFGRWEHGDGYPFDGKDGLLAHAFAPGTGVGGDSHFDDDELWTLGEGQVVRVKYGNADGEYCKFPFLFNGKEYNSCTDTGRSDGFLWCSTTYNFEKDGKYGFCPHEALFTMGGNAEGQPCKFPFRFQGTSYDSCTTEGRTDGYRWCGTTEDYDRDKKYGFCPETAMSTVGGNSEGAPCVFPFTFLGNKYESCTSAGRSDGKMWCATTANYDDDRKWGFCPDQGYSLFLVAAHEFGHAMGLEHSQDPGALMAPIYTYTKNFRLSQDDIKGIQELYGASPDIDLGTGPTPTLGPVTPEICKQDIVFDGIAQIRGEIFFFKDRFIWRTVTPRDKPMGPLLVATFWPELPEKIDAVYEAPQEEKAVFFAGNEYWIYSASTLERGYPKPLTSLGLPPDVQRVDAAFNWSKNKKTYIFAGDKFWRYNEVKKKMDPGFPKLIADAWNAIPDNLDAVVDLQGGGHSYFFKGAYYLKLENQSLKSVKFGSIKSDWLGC
# Method: as §1
# T1 sequence (P14780 94-707, species assumed): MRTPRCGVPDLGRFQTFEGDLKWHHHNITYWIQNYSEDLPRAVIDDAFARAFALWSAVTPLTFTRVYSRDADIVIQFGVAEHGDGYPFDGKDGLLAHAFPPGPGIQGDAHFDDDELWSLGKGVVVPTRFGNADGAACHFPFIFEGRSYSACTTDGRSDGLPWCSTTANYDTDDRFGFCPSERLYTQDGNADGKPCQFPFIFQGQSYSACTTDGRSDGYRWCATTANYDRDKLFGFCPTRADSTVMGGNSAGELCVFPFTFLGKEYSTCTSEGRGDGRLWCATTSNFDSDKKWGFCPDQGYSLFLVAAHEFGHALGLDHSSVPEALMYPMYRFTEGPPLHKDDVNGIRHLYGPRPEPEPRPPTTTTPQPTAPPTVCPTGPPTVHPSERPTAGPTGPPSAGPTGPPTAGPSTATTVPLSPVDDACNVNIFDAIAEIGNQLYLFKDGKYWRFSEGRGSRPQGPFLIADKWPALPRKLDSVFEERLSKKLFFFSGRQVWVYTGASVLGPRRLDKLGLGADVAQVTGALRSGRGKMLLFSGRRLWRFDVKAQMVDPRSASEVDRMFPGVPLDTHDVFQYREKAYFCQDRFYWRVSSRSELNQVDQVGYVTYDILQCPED
compound,measurement,setting,value
"CC[C@H](C)[C@@H]1NC(=O)[C@@H]2CSSC[C@H](NC(=O)[C@H](CCCNC(=N)N)NC(=O)[C@@H]3CSSC[C@H](NC1=O)C(=O)N[C@@H]([C@@H](C)O)C(=O)N[C@@H](CCCNC(=N)N)C(=O)NCC(=O)N[C@@H](Cc1ccccc1)C(=O)N3)C(=O)N[C@@H](CC(C)C)C(=O)N[C@H]1CSSC[C@H](NC(=O)[C@H](C(C)C)NC(=O)CNC(=O)[C@H](CCCNC(=N)N)NC(=O)[C@H](CCCNC(=N)N)NC1=O)C(=O)N[C@@H](CCCNC(=N)N)C(=O)N2 [Peptide 16, reference compound] (cyclo(GFCRCLCRRGVCRCICTR); disulfide 3-16, 5-14, 7-12 (inferred); ring closure inferred)",Ki,[1],> 10000 nM
same,Ki,[2],60 ± 10.4 nM
